{"source": "paper PMC10110893", "about": "“[…]-derived synthetic cannabinoids inhibit T-type calcium channels with divergent effects on seizures in rodent models of epilepsy” (Frontiers in Physiology, 2023)", "tested_on": "Scn1a +/- mouse model of Dravet syndrome", "assay": "Spontaneous seizures and survival monitoring in Scn1a+/- mice", "format": "in vivo", "protocol": "Scn1a ^ +/− mice purchased from The Jackson Laboratory (stock 37107-JAX; Bar Harbour, United States) were maintained as a congenic line on a 129S6/SvEvTac background (129. Scn1a ^+/−). F1 mice were generated by crossing 129. Scn1a ^+/− mice with wild-type C57BL/6J mice (Jackson Laboratory stock no. 000664) and group housed. Scn1a genotype was determined as previously described ([Miller et al., 2014]).\nOn P18, male and female Scn1a ^ +/− mice were weaned and randomly assigned to treatment groups (untreated or SB2193) with n = 17–19 per group. For spontaneous seizure and survival experiments, SB2193 was administered sub-chronically via supplementation of the compound into chow to avoid stress associated with repeated i.p. injections. Chow was formulated at 5,000 mg/kg SB2193 in chow to provide target brain concentrations of 0.73 μM, with the daily oral dose based on the assumption that each mouse consumes approximately 3 g chow/day. Bodyweight of mice was monitored during the administration period to ensure consumption of chow. Animals in both treatment groups gained weight at an equivalent rate over the chow supplementation period (Supplementary Figure S1).\nContinuous video recordings from 00:00 P23 to 24:00 P24 were made using a Samsung SCB-5003 days/night camera equipped with an infrared lens (Seoul, South Korea). The number of spontaneous generalised tonic-clonic seizures (GTCS) occurring over the 48 h recording period was quantified offline by a blinded observer. Statistical comparison was performed in GraphPad Prism using a Mann-Whitney U test as data were non-parametric. Treatment was continued to P30 to monitor survival of mice. Scn1a ^ +/− mice have a high premature mortality rate, with approximately 50% of animals surviving to P30 ([Miller et al., 2014]). We have observed substantial variability in the mortality rate across experimental cohorts which is difficult to explain and likely due to stochastic factors ([Anderson et al., 2020]; [Anderson et al., 2021]; [Anderson et al., 2022]). […]"}
{"smiles": "CCCCCn1cc(C(=O)N2CCN(C(=O)OC(C)(C)C)CC2)c2ccccc21", "note": "[SB2193]", "values": [{"measurement": "survival of mice to P30", "setting": "5,000 mg/kg chow orally P18–P30", "result": "no effect"}, {"measurement": "spontaneous seizure (GTCS) frequency vs control mice", "setting": "5,000 mg/kg chow orally from P18, 48 h recording P23-24, n = 17–19", "result": "did not decrease"}, {"measurement": "bodyweight change", "setting": "SB2193-treated vs untreated chow, P18 to P30, n = 14", "result": "no effect of treatment"}]}
